# Experiments:
# tyrosine kinase FGFR4 = tyrosine kinase FGFR4 (Homo sapiens, UniProt P22455); assay: Kinase assay (mobility shift assay), FGFR4; assay type: biochemical; details: compound and enzyme incubated for 60 mins
# Protocol: (§1) The effect of the compounds of the present invention on the activity of tyrosine kinase FGFR4 was evaluated with in vitro kinase detection experiment. The mobility shift assay was used in the experiment, and a fluorescently labeled polypeptide was used as the substrate, the substrate was transformed into a product under the action of the enzyme in the reaction system, and its charge has also changed accordingly. This method can use the difference between the charge of the substrate and the product to separate them, and then detect them separately.
# (§2) DMSO solution of compound (300 μM) was diluted to a 100-fold final concentration of DMSO solution in a 384-well plate, 3-fold dilution, 250 nL of the compound with 100-fold final concentration was transferred to the target plate OptiPlate-384F by a dispenser Echo 550. The final concentration of the compound were 3000 nM, 1000 nM, 333.3 nM, 111.1 nM, 37.04 nM, 12.35 nM, 4.115 nM, 1.372 nM, 0.4572 nM, 0.1524 nM, the compound and the enzyme were incubated for 60 mins,
# (§3) Prepared 1× kinase buffer, used the 1× kinase buffer to prepare 2.5 fold final concentration of kinase solution, 10 μL of 2.5 fold final concentration kinase solution was added to the compound well and the positive control well respectively, and 10 μL of 1× kinase buffer was added to the negative control well. After centrifugation, the reaction plate was shaken and mixed and incubated at room temperature for 60 mins, a mixture of 25/15 fold final concentration of adenosine triphosphate (ATP) and kinase substrate 22 was prepared with 1× kinase buffer. 15 μL of 25/15 fold final concentration of ATP and substrate mixed solution was added to start the reaction, 384-well plate was centrifuged, mixed, and then incubated at room temperature for 30 minutes, 30 μL of the stop detection solution was added to stop the kinase reaction, and the conversion rate was readed with Caliper EZ Reader after centrifugation and mixing;
# (§4) wherein: Conversion %_sample was the conversion rate of the sample; Conversion %_min was the average value of the negative control well, which represent the conversion rate of the well without enzyme activity, Conversion %_max was the average value of the positive control well, which represent the conversion rate of the well without compound inhibition.
# (§5) Take the log value of the concentration as the X axis, the percentage inhibition rate as the Y axis, and use GraphPad Prism's log(inhibitor) vs. response-Variable slope (four parameters) of the analysis software to fit the dose-response curve to obtain the IC50 value of each compound on the enzyme. The formula is as follows: Y=Bottom+(Top−Bottom)/(1+10^((Log IC50−X)*HillSlope)).
# FGFR1 = FGFR1 (Homo sapiens, UniProt P11362); assay: Kinase assay (mobility shift assay), FGFR1; assay type: biochemical; details: compound and enzyme incubated for 60 mins
# Sequence of FGFR1 (P11362 22-822): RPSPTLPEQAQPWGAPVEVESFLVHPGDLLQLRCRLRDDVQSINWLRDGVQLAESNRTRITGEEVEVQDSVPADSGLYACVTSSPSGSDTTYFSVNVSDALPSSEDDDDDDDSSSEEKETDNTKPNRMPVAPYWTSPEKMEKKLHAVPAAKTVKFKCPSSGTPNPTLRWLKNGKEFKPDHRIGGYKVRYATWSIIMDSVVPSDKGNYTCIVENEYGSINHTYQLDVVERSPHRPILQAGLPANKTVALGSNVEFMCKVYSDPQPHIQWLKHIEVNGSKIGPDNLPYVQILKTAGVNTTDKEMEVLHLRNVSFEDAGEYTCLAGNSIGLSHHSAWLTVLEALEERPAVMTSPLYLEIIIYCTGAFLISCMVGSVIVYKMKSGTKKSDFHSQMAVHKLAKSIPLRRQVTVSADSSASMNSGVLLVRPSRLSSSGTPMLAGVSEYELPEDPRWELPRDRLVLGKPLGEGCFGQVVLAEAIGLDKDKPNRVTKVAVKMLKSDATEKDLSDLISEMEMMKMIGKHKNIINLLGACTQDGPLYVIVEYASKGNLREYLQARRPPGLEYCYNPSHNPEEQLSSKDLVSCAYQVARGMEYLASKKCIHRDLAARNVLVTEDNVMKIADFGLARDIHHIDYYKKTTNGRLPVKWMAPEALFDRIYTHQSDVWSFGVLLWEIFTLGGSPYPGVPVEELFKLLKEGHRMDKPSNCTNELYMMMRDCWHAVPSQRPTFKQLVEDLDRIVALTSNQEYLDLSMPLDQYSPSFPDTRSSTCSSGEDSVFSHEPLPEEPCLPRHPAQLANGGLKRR
# Protocol: [The source words this procedure for another target and reports this target under the same test.] as §1, §2, §3, §4, §5
# [1] = system: human liver cancer cells Hep3B cells; assay: Cell proliferation assay (CellTiter-Glo); assay type: cell-based; details: 96 hrs incubation, CTG detection, read-out: IC50(nM) of the compound on Hep3B cells
# Excerpt: In vitro cell assay was used to measure the effects of the compound of the present invention on the proliferation of human liver cancer cells Hep3B cells. The CELL TITER-GLO (CTG) luminescent was used as detection method in the assay, which can detect the number of living cells by quantitatively determining ATP. Because ATP participates in a variety of enzymatic reactions in organisms, it is an indicator of the metabolism of living cells, and its content directly reflects the number and cell state of cells, during the experiment, add CellTiter-Glo™ reagent to the cell culture medium to measure the luminescence, the luminescence value is directly proportional to the amount of ATP, and ATP is positively related to the number of living cells, so cell viability can be inspected by detecting the ATP content.
# Take a bottle of Hep3B cells in logarithmic growth phase, the cells were counted after digestion and resuspension, and then were adjusted the cell density and seeded at 180 μL per well (1500 cells/well) into a 96-well plate, the plate was incubated for 24 hrs in 37° C. 5% CO2 incubator;
# The 600 μM test substance dissolved in DMSO was diluted with DMSO in a 1:3 ratio to a 200-fold final concentration solution, then the cell culture medium was diluted 20 fold (10×), and 20 μL of the compound solution was added to the 96 wells containing cells in the plate, the final concentration of the compound from high to low was 3000 nM, 1000 nM, 333.3 nM, 111.1 nM, 37.04 nM, 12.35 nM, 4.115 nM, 1.372 nM, 0.4572 nM, and the well plate was placed in a 37° C. 5% CO2 incubator for 96 hrs;
# After 96 hrs of incubation, 60 μL of CellTiter-Glo® Luminescent Cell Viability Assay solution was added to each well, gently shaked for 2 mins, continued incubating for 10 mins at room temperature, and the luminescence value of each well on the multifunctional microplate reader was readed.
# Calculated the inhibition rate base on the luminous value,
# Inhibition rate %=(blank group value−administration group value)/(blank group value−apoptosis group value)*100
# The log value of the concentration was used as the X axis, and the percentage inhibition rate was used as the Y axis. Log (inhibitor) vs. response-Variable slope (four parameters) of GraphPad Prism's was used to fit the dose-response curve, and the IC50 of the compound to inhibit cell proliferation was calculated.
# [2] = system: human hepatocarcinoma cells Hep3B; assay: Xenograft tumor model; assay type: in vivo; details: for inhibitory rate on tumor volume growth of Hep3B (TGI): BID×14; for inhibitory rate of tumor weight growth (TGI): BID×14, tumor weight after the last dose; for body weight (routine determination of toxicity): during the entire experiment, at the treatment doses
# Protocol: BALB/c nu/nu female mice were inoculated subcutaneously in the right anterior scapula of 5×10^6 human hepatocarcinoma cells Hep3B, and the volume ratio of cell suspension to matrigel was 1:1 (0.2/mL/mouse). The mice were grouped according to tumor size until the average tumor volume was 158 mm^3. The treatment group was given a test compound solution prepared with an appropriate solvent, and the solvent control group was given a blank solvent. During the treatment, the tumor volume was measured twice a week, and the tumor weight was measured after the last dose to determine the compound activity. The tumor growth inhibition rate (%, TGI) was calculated by comparing the tumor volume and weight of the treatment group and the solvent control group. Body weight measurement, as a routine determination of toxicity, has the same frequency as the tumor volume measurement.
# Sequence of tyrosine kinase FGFR4 (P22455 22-802): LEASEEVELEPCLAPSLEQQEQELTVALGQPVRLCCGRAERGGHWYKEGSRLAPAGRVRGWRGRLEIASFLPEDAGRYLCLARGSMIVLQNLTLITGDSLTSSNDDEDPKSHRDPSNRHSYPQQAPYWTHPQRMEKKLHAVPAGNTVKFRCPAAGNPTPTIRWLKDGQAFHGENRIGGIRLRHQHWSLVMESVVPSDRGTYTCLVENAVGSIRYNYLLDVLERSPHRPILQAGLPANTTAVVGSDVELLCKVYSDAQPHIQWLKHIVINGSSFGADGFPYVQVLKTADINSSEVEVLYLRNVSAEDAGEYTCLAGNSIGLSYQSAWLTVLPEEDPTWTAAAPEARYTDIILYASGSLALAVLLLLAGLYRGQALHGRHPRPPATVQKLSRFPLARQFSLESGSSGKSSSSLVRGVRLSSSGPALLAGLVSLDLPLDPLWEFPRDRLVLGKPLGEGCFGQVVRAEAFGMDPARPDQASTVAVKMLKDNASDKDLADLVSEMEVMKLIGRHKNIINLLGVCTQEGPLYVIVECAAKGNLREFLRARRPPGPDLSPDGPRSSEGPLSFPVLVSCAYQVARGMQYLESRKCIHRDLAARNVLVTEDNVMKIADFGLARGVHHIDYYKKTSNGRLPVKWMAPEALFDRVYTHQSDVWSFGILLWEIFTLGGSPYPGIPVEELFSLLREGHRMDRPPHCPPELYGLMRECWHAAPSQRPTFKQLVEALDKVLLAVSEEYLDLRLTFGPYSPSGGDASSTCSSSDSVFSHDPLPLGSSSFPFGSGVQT
SMILES,IC50 (tyrosine kinase FGFR4) [nM],IC50 (FGFR1) [nM],IC50 [1] [nM],further results
"C=CC(=O)N[C@H]1CCOC[C@H]1Nc1ncc2c(=O)n(-c3c(Cl)c(OC)cc(OC)c3Cl)c3ncccc3c2n1 [Compound 3, N-((3S,4S)-3-((6-(2,6-dichloro-3,5-dimethoxyphenyl)-5-oxo-5,6-dihydropyrimido[5,4-c][1,8]naphthyridin-2-yl)amino)tetrahydro-2H-pyran-4-yl)acrylamide]",,,> 3000,
"C=CC(=O)N[C@H]1CCOC[C@H]1Nc1ncc2c(n1)-c1cc(F)cnc1N(c1c(Cl)c(OC)cc(OC)c1Cl)C2 [Compound 11, N-((3S,4S)-3-((6-(2,6-dichloro-3,5-dimethoxyphenyl)-9-fluoro-5,6-dihydropyrimido[5,4-c][1,8]naphthyridin-2-yl)amino)tetrahydro-2H-pyran-4-yl)acrylamide]",1.8,1530,10.6,
"C=CC(=O)N[C@H]1CCOC[C@H]1Nc1ncc2c(n1)-c1cc(C)cnc1N(c1c(Cl)c(OC)cc(OC)c1Cl)C2 [Compound 13, N-((3S,4S)-3-((6-(2,6-dichloro-3,5-dimethoxyphenyl)-9-methyl-5,6-dihydropyrimido[5,4-c][1,8]naphthyridin-2-yl)amino)tetrahydro-2H-pyran-4-yl)acrylamide]",1,367,5.1,inhibitory rate on tumor volume growth of Hep3B (TGI) ([2]; 50 mg/kg): 73.02%; inhibitory rate of tumor weight growth (TGI) ([2]; 50 mg/kg): 84.76%; inhibitory rate on tumor volume growth of Hep3B (TGI) ([2]; 100 mg/kg): 86.26%; inhibitory rate of tumor weight growth (TGI) ([2]; 100 mg/kg): 92.27%; inhibitory rate on tumor volume growth of Hep3B (TGI) ([2]; 200 mg/kg): 90.26%; inhibitory rate of tumor weight growth (TGI) ([2]; 200 mg/kg): 98.15%; body weight (routine determination of toxicity) [2]: did not show obvious weight losses
"C=CC(=O)N[C@H]1CCOC[C@H]1Nc1ncc2c(n1)-c1ccc(C)nc1N(c1c(Cl)c(OC)cc(OC)c1Cl)C2 [Compound 15, N-((3S,4S)-3-((6-(2,6-dichloro-3,5-dimethoxyphenyl)-8-methyl-5,6-dihydropyrimido[5,4-c][1,8]naphthyridin-2-yl)amino)tetrahydro-2H-pyran-4-yl)acrylamide]",5.2,1000,,
"C=CC(=O)N[C@H]1CCOC[C@H]1Nc1ncc2c(n1)-c1cc(C(F)(F)F)cnc1N(c1c(Cl)c(OC)cc(OC)c1Cl)C2 [Compound 16, N-((3S,4S)-3-((6-(2,6-dichloro-3,5-dimethoxyphenyl)-9-(trifluoromethyl)-5,6-dihydropyrimido[5,4-c][1,8]naphthyridin-2-yl)amino)tetrahydro-2H-pyran-4-yl)acrylamide]",3.6,166,14.5,inhibitory rate on tumor volume growth of Hep3B (TGI) ([2]; 50 mg/kg): 78.37%; inhibitory rate of tumor weight growth (TGI) ([2]; 50 mg/kg): 83.85%; body weight (routine determination of toxicity) [2]: did not show obvious weight losses
"C=CC(=O)N[C@H]1CCOC[C@H]1Nc1ncc2c(n1)-c1cc(Cl)cnc1N(c1c(Cl)c(OC)cc(OC)c1Cl)C2 [Compound 28, N-((3S,4S)-3-((9-chloro-6-(2,6-dichloro-3,5-dimethoxyphenyl)-5,6-dihydropyrimido[5,4-c][1,8]naphthyridin-2-yl)amino)tetrahydro-2H-pyran-4-yl)acrylamide]",1.8,741,9.9,
"C=CC(=O)N[C@H]1CCOC[C@H]1Nc1ncc2cc(-c3c(Cl)c(OC)cc(OC)c3Cl)c3nncn3c2n1 [Compound 33, N-((3S,4S)-3-((6-(2,6-dichloro-3,5-dimethoxyphenyl)-[1,2,4]triazolo[4′,3′:1,6]pyrido[2,3-d]pyrimidin-2-yl)amino)tetrahydro-2H-pyran-4-yl)acrylamide]",,,524,
"C=CC(=O)NC1CCOCC1Nc1ncc2c(=O)n(-c3c(Cl)c(OC)cc(OC)c3Cl)c3ncc(Cl)cc3c2n1 (stereo not shown) [Compound 34, N-(3-((9-chloro-6-(2,6-dichloro-3,5-dimethoxyphenyl)-5-oxo-5,6-dihydropyrimido[5,4-c][1,8]naphthyridin-2-yl)amino)tetrahydro-2H-pyran-4-yl)acrylamide]",,,1030,

# The next lines start with results.
IC50 (tyrosine kinase FGFR4) [nM],IC50 (FGFR1) [nM],IC50 [1] [nM],SMILES,further results
13,1480,62.7,"C=CC(=O)N[C@H]1CCOC[C@H]1Nc1ncc2cc(-c3c(Cl)c(OC)cc(OC)c3Cl)ccc2n1 [BLU554, reference compound]",
9.4,,6.9,"C=CC(=O)Nc1cc(N2CCC(N3CCOCC3)CC2)ccc1Nc1ncc2c(n1)-c1cccnc1N(c1c(Cl)c(OC)cc(OC)c1Cl)C2 [Compound 1, N-(2-((6-(2,6-dichloro-3,5-dimethoxyphenyl)-5,6-dihydropyrimido[5,4-c][1,8]naphthyridin-2-yl)amino)-5-(4-morpholinopiperidin-1-yl)phenyl)acrylamide]",
10,912,,"C=CC(=O)N[C@H]1CCOC[C@H]1Nc1ncc2c(n1)-c1cccnc1N(c1c(Cl)c(OC)cc(OC)c1Cl)C2 [Compound 2, N-((3S,4S)-3-((6-(2,6-dichloro-3,5-dimethoxyphenyl)-5,6-dihydropyrimido[5,4-c][1,8]naphthyridin-2-yl)amino)tetrahydro-2H-pyran-4-yl)acrylamide]",
2.6,1440,18.7,"C=CC(=O)N[C@H]1CCOC[C@H]1Nc1ncc2c(n1)-c1cc(C)cnc1N(c1cc(OC)cc(OC)c1Cl)C2 [Compound 14, N-((3S,4S)-3-((6-(2-chloro-3,5-dimethoxyphenyl)-9-methyl-5,6-dihydropyrimido[5,4-c][1,8]naphthyridin-2-yl)amino)tetrahydro-2H-pyran-4-yl)acrylamide]",

# Reference: US20220002307A1, “FGFR4 INHIBITOR AND USE THEREOF” (BETTA PHARMACEUTICALS CO., LTD, priority 2018, published 2022)
